Data reported in patent US8227616B2, “Cyanopyridine antibacterial agents and methods of use thereof” (Wisconsin Alumni Research Foundation, priority 2006, dated 2012).
≈ marks a conversion by molar mass, not a printed value.

What was measured:
[1] = test system: S. aureus ATCC 10390; assay: MIC determination with authentic compounds resynthesized in solution; format: cell-based, Staphylococcus aureus; design: MIC against S. aureus 10390: unit: uM; conditions: for MIC: Staphylococcus aureus, ATCC10390; for MIC against S. aureus 10390: values quoted in killing-curve protocol, unit not given
Procedure: (§1) For estimated MIC determination, DMSO was added to the dried compound residue obtained from a single spot to afford ca. 100 μL of a 2 mM stock solution. Aliquots (5 μL) of these solutions were added to a 96-well plate, followed by 195 μL of diluted S. aureus 10390 (10^6 CFUs/mL) to yield ca. 50 μM final concentrations. The plates were swirled for 1 h to ensure compound dissolution, incubated for 12 h at 37° C., and the absorbance at 595 nm was recorded using a plate reader. […] Actual MIC values were determined for lead compounds resynthesized in solution using an analogous procedure with solutions of known concentration (see).
(§2) Dose response growth inhibition curves were determined for each active compound (resynthesized in solution) against S. aureus 10390 (SA) and methicillin-resistant S. aureus 33591 (MRSA). […] MIC assays were performed in quadruplicate.

[2] = test system: Methicillin-resistant S. aureus ATCC 33591 (MRSA); assay: as above; format: cell-based; conditions: Staphylococcus aureus; Table 3; authentic sample, only trans isomers of chalcones; error reflects step size in the serial dilutions
Procedure: as §1, §2

[3] = test system: S. aureus ATCC 10390; assay: Estimated MIC, solution-phase microdilution absorbance assay with crude macroarray spot stock solutions; format: cell-based, Staphylococcus aureus; conditions: for inhibition of S. aureus at the 12.5 μM level: macroarray stock solutions diluted four fold; for MIC: Staphylococcus aureus, ATCC10390, 12 h
Procedure: Spots from a new 69 member chalcone macroarray as well as the three heterocyclic macroarrays prepared earlier were punched out, cleaved, and eluted with acetonitrile. The resulting solutions were concentrated to a residue that was taken up in DMSO to form 2 mM stock solutions.
From the stock solutions, microdilution assays in a 96 well plate starting at 50 μM were performed in quadruplicate. Each well contained 5 μL of the stock solution as well as 195 μL of a S. aureus culture. The turbidity of each well was measured after incubating 12 hours using a standard plate reader. Active compounds can be further diluted and the assay repeated.
To acquire more quantitative antibacterial activity data about our compounds and verify our on-support assay results, we performed solution-phase absorbance assays that provided estimates of the minimum inhibitory concentration (MIC) of each macroarray member against S. aureus. Stock solutions (ca. 2 mM) were generated by cleaving and eluting 198 individual compounds from chalcone (3) and heterocyclic macroarrays (5, 7, and 8). […] The good overall purities of the crude macroarray compounds allowed for reasonable estimations of MICs.
as §1
Preparation of spot samples and controls. An aliquot of DMSO (ca. 100 μL depending on the loading of the parent hydroxyacetophenone) was added to the dried compound residue obtained after TFA cleavage and elution from a single spot. This afforded a 2.0 mM “spot stock” solution for each spot. A small aliquot of each “spot stock” solution was saved for subsequent LC-MS analysis.
For estimated MIC screens, 5.0 μL portions of the “spot stock” solutions were added to the appropriate wells in a sterile, polystyrene 96-well plate to yield ca. 50 μM solutions (dependent on the initial loading of hydroxyacetopheneone and compound purity). To the positive and negative control wells, 5.0 μL of DMSO were added (positive controls contained bacteria but no compound, while negative controls had neither compound nor bacteria). All estimated MIC assays were performed in quadruplicate. Note: the MIC value is defined as the lowest concentration where no bacterial growth occurs.
Representative estimated MIC assay procedure. This assay procedure is based in part on the method reported by Strøm et al.^xiii A 400 μL portion of overnight S. aureus 10390 culture was diluted with 100 mL of sterile LB broth to give ca. 10^6 CFUs per mL. Aliquots (195 μL) of this solution were added to all of the wells in a sterile 96-well plate (except for the negative control wells; 195 μL of sterile LB broth were added to these wells). The plates were placed on an orbital shaker table and gently swirled for 1 h to ensure compound dissolution, and then incubated (without shaking) for 12 h at 37° C. The absorbance at 595 nm was recorded using a plate reader.
The original “spot stock” solutions of these compounds were diluted with DMSO to give ca. 25 and 13 μM final concentrations and tested for inhibitory activities using the procedure described above.

[4] = test system: K. pneumoniae; assay: Agar overlay TTC assay, compound overlays; format: cell-based, Klebsiella pneumoniae; conditions: 30 nanomole aliquots of purified compound on filter paper
[5] = test system: S. epidermidis ATCC 12228; assay: MIC determination, species selectivity; format: cell-based; conditions: Staphylococcus epidermidis, ATCC12228; authentic sample, only trans isomers of chalcones; error reflects step size
Procedure: (§3) Each compound from Table 3 was tested for inhibitory activity at 2.5, 5, 7.5, 10, 15, 20, 25, and 30 μM in the susceptible overlaid strains: B. subtilis ATCC 6633, S. epidermidis ATCC 12228, and K. pneumoniae ATCC 4352. MIC assays were run in quadruplicate as described above (with shaking).

[6] = test system: B. subtilis subsp. spizizenii ATCC 6633; assay: MIC determination, species selectivity; format: cell-based; conditions: Bacillus subtilis, ATCC6633; authentic sample, only trans isomers of chalcones; error reflects step size
Procedure: as §3

[7] = test system: K. pneumoniae ATCC 4352; assay: MIC determination, species selectivity; format: cell-based; conditions: Klebsiella pneumoniae, ATCC4352; authentic sample, only trans isomers of chalcones; error reflects step size
Procedure: as §3

[8] = test system: S. aureus 10390; assay: Time-dependent bacterial killing curves; format: cell-based, Staphylococcus aureus; conditions: 0.5x to 4x MIC, 0-6 h
Procedure: Solutions of compounds 4Bv, 6Ao, 9Cf, and linezolid were prepared in DMSO over a range of concentrations. […] At 0, 2, 4, and 6 h time points, […] samples were withdrawn from the test tubes, diluted into 10 mL of LB broth in a test tube, and swabbed in duplicate on agar plates to determine CFUs. These plates were incubated at 37° C. for 24 h, after which time the colonies were counted visually. […] Instead, 200 μL was removed from the test tube and directly swabbed on the agar plates.

[9] = test system: S. aureus ATCC 10390; assay: Kirby-Bauer disk diffusion assay on compound spots from cleaved macroarray; format: cell-based, Staphylococcus aureus; conditions: loadings 30 μg/spot, 18 h incubation
Procedure: While the heterocyclic libraries were being synthesized, the chalcone macroarrays were analyzed using various direct assay techniques such as the Kirby-Bauer disk diffusion assay (FIG. 2E). Bauer, A. W.; Kirby, […].; Turck, M. Technical Bulletin of the Registry of Medical Technologists 1966, 36, 49-52. For this assay, the macroarray members are punched out from the membrane, cleaved from the support with TFA vapor, neutralized with ammonia vapor, and then placed on an agar bed inoculated with S. aureus. After incubating overnight, different diameters of zones of inhibition are measured as a factor of potency as well as solubility in the medium. Ammonia vapor neutralization was key in the disk diffusion assay, otherwise residual TFA vapor created a false positive signature. However, in this method, macroarrays have to be made in triplicate one for a replicate and one for compound characterization. We first evaluated test chalcone macroarrays (3) in antibacterial assays against S. aureus. Because the macroarrays were prepared on cellulose filter paper, we had convenient access to the compounds in disk form for standard disk diffusion assays. Compound spots were punched out of the macroarrays, subjected to vapor phase cleavage with acid (TFA), and neutralized (NH3) to afford disks containing ca. 30 μg of adsorbed compound [8]. These disks were manually placed on lawns of S. aureus, and zones of inhibition were measured after an 18 h incubation period. […] However, this antibacterial assay format had drawbacks: (1) the entire sample of compound was consumed during the assay, and thus replicate arrays needed to be synthesized to confirm activity, and (2) manipulating large numbers of compound disks was relatively labor intensive. Compound spots were cleaved with TFA and neutralized with NH3 as described herein. […] Compound spots were placed onto the agar, the plate was incubated at 37° C. for 18 h, and the diameters of the zones of inhibition were measured. […] Compound spots were subjected to the TFA cleavage conditions described above. The spots were next subjected to NH3 vapor to neutralize any remaining TFA. […] Vials containing the spots (or intact macroarrays) were placed inside a small evaporating dish, and this was placed into the NH4OH solution. The Pyrex dish was covered, and NH3 vapor was allowed to slowly diffuse into the vials. After 1 h, the vials were removed from the NH3 chamber, and the spots were allowed to stand open in a fume hood for at least 15 min to vent prior to analysis in the following assays. This afforded dry, paper disks containing adsorbed compound. […] The plates were removed, and the diameters of the zones of inhibition were measured in mm using a ruler (see FIG. 1A).

[10] = Table 2, authentic sample synthesized according to standard techniques, read-out: observed MIC
[11] = Table 3, authentic sample, only trans isomers of chalcones, error reflects step size in the serial dilutions, read-out: S. aureus MIC
[12] = Table 2, serial dilution of stock solutions obtained by SPOT-synthesis, read-out: estimated MIC range
[13] = Table 3, serial dilution of spot stock solutions of crude macroarray compounds, read-out: S. aureus Estimated MIC range

| SMILES | MIC [1, 10] [µM] | MIC [1, 11] [µM] | MIC [2] [µM] | inhibition of S. aureus at the 12.5 μM level [3] | MIC [3, 12] [µM] | MIC [3, 13] [µM] | susceptibility in agar overlay TTC assay [4] | MIC [5] [µM] | MIC [6] [µM] | MIC [7] [µM] | MIC against S. aureus 10390 [1] | mode of activity (bacteriostatic or bactericidal) [8] | Zones of inhibition [9] [mm] |
| --- | --- | --- | --- | --- | --- | --- | --- | --- | --- | --- | --- | --- | --- |
| O=C(/C=C/c1c(Cl)ccc(Cl)c1Cl)c1cccc(O)c1 [Compound 4Bo, 3′-hydroxy-2,3,6-trichlorochalcone] | 6.5 ± 0.5 (≈ 2.13 µg/mL) | 10 ± 1 (≈ 3.28 µg/mL) | 10 ± 1 (≈ 3.28 µg/mL) | complete inhibition | 6.25 to 12.5 (≈ 2.05 to 4.09 µg/mL) | < 12.5 | weakly susceptible | 12.5 ± 2.5 (≈ 4.09 µg/mL) | 8.8 ± 1.2 (≈ 2.88 µg/mL) | > 250 | – | – | – |
| CC(=O)NC[C@H]1CN(c2ccc(N3CCOCC3)c(F)c2)C(=O)O1 [Linezolid, linezolid, reference compound] | 6 ± 0.5 (≈ 2.02 µg/mL) | 10 ± 1 (≈ 3.37 µg/mL) | 8 ± 1 (≈ 2.7 µg/mL) | – | – | – | – | – | – | – | ~10.0 | bacteriostatic | – |
| O=C(/C=C/c1ccc(Cl)cc1Cl)c1ccc(O)cc1 [Compound 4At, 2,4-dichloro-4′-hydroxychalcone] | 18.8 ± 1.2 (≈ 5.51 µg/mL) | 21.2 ± 1.2 (≈ 6.21 µg/mL) | 18.7 ± 1.2 (≈ 5.48 µg/mL) | – | 25 to 50 (≈ 7.33 to 14.7 µg/mL) | 25 to 50 (≈ 7.33 to 14.7 µg/mL) | weakly susceptible | 27.5 ± 2.5 (≈ 8.06 µg/mL) | 27.5 ± 2.5 (≈ 8.06 µg/mL) | > 250 | – | – | – |
| Cc1nc(-c2ccc(O)cc2)cc(-c2c(Cl)ccc(Cl)c2Cl)c1C#N [Compound 6Ao, 6-(4-hydroxyphenyl)-2-methyl-4-(2,3,6-trichlorophenyl)-3-cyanopyridine] | 6 ± 0.5 (≈ 2.34 µg/mL) | 7.5 ± 1.2 (≈ 2.92 µg/mL) | 7.5 ± 1.2 (≈ 2.92 µg/mL) | complete inhibition | 6.25 to 12.5 (≈ 2.44 to 4.87 µg/mL) | < 12.5 | – | 6.3 ± 1.2 (≈ 2.45 µg/mL) | 3.8 ± 1.2 (≈ 1.48 µg/mL) | – | ~7.5 | bactericidal | – |
| Cc1nc(-c2ccc(O)cc2)cc(-c2cccc(Cl)c2Cl)c1C#N [Compound 6Al, 4-(2,3-dichlorophenyl)-6-(4-hydroxyphenyl)-2-methyl-3-cyanopyridine] | 8.7 ± 1.3 (≈ 3.09 µg/mL) | 10 ± 0.5 (≈ 3.55 µg/mL) | 10 ± 0.5 (≈ 3.55 µg/mL) | – | 12.5 to 25 (≈ 4.44 to 8.88 µg/mL) | 12.5 to 25 (≈ 4.44 to 8.88 µg/mL) | – | 12.5 ± 2.5 (≈ 4.44 µg/mL) | 6.3 ± 1.2 (≈ 2.24 µg/mL) | – | – | – | – |
| Cc1nc(-c2cccc(O)c2)cc(-c2ccc(Cl)cc2Cl)c1C#N [Compound 6Bt, 4-(2,4-dichlorophenyl)-6-(3-hydroxyphenyl)-2-methyl-3-cyanopyridine] | 10 ± 1 (≈ 3.55 µg/mL) | 11.6 ± 0.9 (≈ 4.12 µg/mL) | 13.4 ± 0.9 (≈ 4.76 µg/mL) | complete inhibition | 6.25 to 12.5 (≈ 2.22 to 4.44 µg/mL) | < 12.5 | – | 17.5 ± 2.5 (≈ 6.22 µg/mL) | 22.5 ± 2.5 (≈ 7.99 µg/mL) | – | – | – | – |
| O=C(O)c1cn(C2CC2)c2cc(N3CCNCC3)c(F)cc2c1=O [Ciprofloxacin, ciprofloxacin, reference compound] | 0.75 ± 0.12 (≈ 0.249 µg/mL) | 0.6 ± 0.1 (≈ 0.199 µg/mL) | 0.9 ± 0.1 (≈ 0.298 µg/mL) | – | – | – | – | – | – | – | – | – | – |
| COc1cc(C(=O)/C=C/c2ccc(Br)cc2)ccc1O [Compound 4Cf, 4-bromo-4′-hydroxy-3′-methoxy-chalcone] | > 250 | > 250 | > 250 | – | > 50 | > 50 | – | – | – | – | – | – | < 1 |
| COc1cc(-c2cc(-c3ccc(Br)cc3)nc(C)n2)ccc1O [Compound 9Cf, 4-(4-bromophenyl)-6-(4-hydroxy-3-methoxyphenyl)-2-methylpyrimidine] | – | 32.5 ± 1.2 (≈ 12.1 µg/mL) | 31.2 ± 1.2 (≈ 11.6 µg/mL) | – | – | 25 to 50 (≈ 9.28 to 18.6 µg/mL) | – | > 30 | 17.5 ± 2.5 (≈ 6.5 µg/mL) | – | ~32.5 | bacteriostatic | – |
| CN[C@H](CC(C)C)C(=O)N[C@H]1C(=O)N[C@@H](CC(N)=O)C(=O)N[C@H]2C(=O)N[C@H]3C(=O)N[C@H](C(=O)N[C@H](C(=O)O)c4cc(O)cc(O)c4-c4cc3ccc4O)[C@H](O)c3ccc(c(Cl)c3)Oc3cc2cc(c3O[C@@H]2O[C@H](CO)[C@@H](O)[C@H](O)[C@H]2O[C@H]2C[C@](C)(N)[C@H](O)[C@H](C)O2)Oc2ccc(cc2Cl)[C@H]1O [vancomycin, reference compound] | – | – | – | – | – | – | – | – | – | – | – | – | 20 |
